Experimental data reported in patent US12480074B2, “Natural and synthetic cannabinoids as fluorescent tags; compositions, methods, and applications” (UNIVERSITY OF CONNECTICUT, priority 2023, dated 2025).

What was measured:
Type in all cases: physicochemical
[1] = Fluorescence viewed under long range UV light of 365 nm; conditions: excitation at 365 nm
Source text: In fact, the fluorescence is tied to molecular structure as characterized by ^1H NMR. Phytocannabinoids THC and CBN, are fluorescent, with excitation at 365 nanometer (nm). When fluorescent, the CBN phenolic OH becomes broad meaning that it is in some way connected to the fluorescence of the molecule.

[2] = Fluorescence spectrometer analysis of cannabinoid monomers and adipate dimers
[3] = Stability of CBN observed by NMR
Source text: In some embodiments, charge transfer complexes will quench fluorescence, and FRET as it will enhance fluorescence and cause a shift in color. Such adaptations provide, for example, for observation and understanding of a drug as it travels through the body, moves through a cell wall, and binds to a receptor site.

[4] = Fluorescence quenching by phenylenediamine isomers in acetone
Protocol: Experiments were conducted to investigate the fluorescence quenching of cannabinol 2C ether dimer (Example 12) in acetone upon mixing with different isomers of phenylenediamine: ortho-phenylenediamine, meta-phenylenediamine, and para-phenylenediamine. […] This quenching phenomenon can be attributed to the electronic interactions and spatial arrangements of the amino groups in the different phenylenediamine isomers. Both ortho- and para-phenylenediamine have amino groups positioned such that they can effectively engage in electron-donating and resonance interactions with the excited state of cannabinol 2C ether dimer, facilitating non-radiative relaxation pathways such as photoinduced electron transfer (PET).

[5] = Absorption and fluorescence spectroscopy of CBN ether dimers (odd-even effect); conditions: FIG. 9
Source text: A change in number of carbon atoms in the linker with respect to the fluorescence was observed. Absorption and fluorescence spectroscopy was used to evaluate this change with the different dimers and the results are provided in FIGS. 9-10. FIG. 9 is a stacked graph of fluorescence spectroscopy for the odd and even series of dimers of Example 12 (x-axis wavelength in nanometers; y-axis intensity) and FIG. 10 is a stacked graph of the absorption spectroscopy for the same dimers (x-axis wavelength in nanometers; y-axis intensity). […] By changing the number of carbons in linkers, it was observed that when the number of carbon spacer is odd (3C and 5C) the fluorescence is higher compared to the even (2C, 4C and 6C), and a distinct hump at higher wavelengths is observed for odd numbered linkers. This change in the spectra with changing the number of carbons is termed here as the “odd-even effect”.

[6] = Fluorescence of CBN-aniline
Protocol: The synthesis of CBN-aniline was conducted via C—O bond using copper catalyst. The product was characterized by ^1H NMR. […] The CBN-aniline can be formed into dimers by linking through the aniline amine.

SMILES | fluorescence (fluorescent or not) [1] | maximum fluorescence, Wavelength (nm) [2] [nm] | further results
CCCCCc1cc(O)c2c(c1)OC(C)(C)c1ccc(C)cc1-2 [CBN, cannabinol] | fluorescent | 385 | fluorescence (fluorescent or not) ([1]; listed as Cannabinol (CBN)): fluorescent properties; chemical stability [3]: remains CBN for long durations
CCCCCc1cc(OCCOc2cc(CCCCC)cc3c2-c2cc(C)ccc2C(C)(C)O3)c2c(c1)OC(C)(C)c1ccc(C)cc1-2 [cannabinol 2C ether dimer, Dicannabinolethyleneether dimer] | – | – | fluorescence quenching with meta-phenylenediamine [4]: minimal quenching; fluorescence quenching with ortho-phenylenediamine [4]: significantly quenched; fluorescence quenching with para-phenylenediamine [4]: significantly quenched
CCCCCc1cc(OCCCOc2cc(CCCCC)cc3c2-c2cc(C)ccc2C(C)(C)O3)c2c(c1)OC(C)(C)c1ccc(C)cc1-2 [3C] | – | – | fluorescence, odd carbon spacer compared to the even (2C, 4C and 6C) [5]: higher
CCCCCc1cc(OCCCCCOc2cc(CCCCC)cc3c2-c2cc(C)ccc2C(C)(C)O3)c2c(c1)OC(C)(C)c1ccc(C)cc1-2 [5C] | – | – | fluorescence, odd carbon spacer compared to the even (2C, 4C and 6C) [5]: higher
CCCCCc1cc(O)c2c(c1)OC(C)(C)[C@@H]1CCC(C)=C[C@@H]21 [THC, tetrahydrocannabinol, reference compound] | fluorescent | – | –
CCCCCc1cc2c(c(O)c1C(=O)O)[C@@H]1C=C(C)CC[C@H]1C(C)(C)O2 [D-9 THCA, Tetrahydrocannabinolic acid] | fluorescent properties | – | –
C=C(C)[C@@H]1CCC(C)=C[C@H]1c1c(O)cc(CCCCC)cc1O [CBD, cannabidiol, reference compound] | lacking in fluorescence | – | –
CCCCCc1cc(OC(=O)CCCCC(=O)Oc2cc(CCCCC)cc3c2-c2cc(C)ccc2C(C)(C)O3)c2c(c1)OC(C)(C)c1ccc(C)cc1-2 [CBN adipate dimer, DiCannabinol adipate] | fluorescent properties | 418 | fluorescence result compared among the cannabinoids tested ([2]; over THC adipate dimer): most promising results
CCCCCc1cc(OC(=O)CCCCC(=O)Oc2cc(CCCCC)cc3c2C2CC(C)=CCC2C(C)(C)O3)c2c(c1)OC(C)(C)C1CC=C(C)CC21 (stereo not drawn) [d-8 THC adipate dimer] | fluorescent properties | 384 | –
CCCCCc1cc(O)c2c(c1)OC(C)(C)[C@@H]1CC=C(C)C[C@@H]21 [D-8 THC] | fluorescent properties | 380 | –
CCCCCc1cc(O)c(C/C=C(\C)CCC=C(C)C)c(O)c1 [CBG, cannabigerol] | lacking in fluorescence | – | –
CCCCCc1cc(Oc2ccc(N)cc2)c2c(c1)OC(C)(C)c1ccc(C)cc1-2 [CBN-aniline] | – | – | fluorescent properties [6]: exhibited fluorescent properties
